{"source": "patent US20220306695A1", "about": "“COMPSTATIN ANALOGUES AND THEIR MEDICAL USES” (priority 2019, published 2022)", "tested_on": "classical complement pathway", "assay": "In vitro haemolysis assay (inhibition of classical complement pathway)", "type": "cell-based, human", "conditions": "Table 3; human serum, sensitized sheep red blood cells; read-out: IC50[nM], in vitro analysis of inhibition of hemolysis", "outline": "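Serially diluted compound (9 points) was preincubated 15 min at room temperature with diluted human serum, titrated per batch to give 70-90% maximal haemolysis, in Tris/casein buffer pH 7.4 with Mg2+/Ca2+. Antibody-sensitized sheep erythrocytes were then added for 30 min at 37° C, and the reaction was stopped with EDTA. Haemolysis was read at A405, with IC50 from 4PL fit.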", "note": "Starred links: 1 amine or outer side, 2 acyl side, 3 side chain; linkers in the order of their positions; H or OH if unused. Positions of bridges follow the written chain, without caps; N, C: chain ends. Non-standard residues stand in square brackets, D forms with d. Residues, ends and D or L forms follow the SMILES beside them. Groups on a side chain read outwards from the residue. *: point of attachment. Trp(1-Me) = Cn1cc(C[C@H](N)C(=O)O)c2ccccc21; Abu(4-yl) = O=C([C@H](CC[*:3])N[*:1])[*:2]; C18 diacid = O=C(O)CCCCCCCCCCCCCCCCC(=O)*; C16 diacid = O=C(O)CCCCCCCCCCCCCCC(=O)*; γGlu = O=C(O)[C@H](CCC(=O)[*:2])N[*:1]; AEEA = NCCOCCOCC(=O)O; Sar = CNCC(=O)O"}
{"smiles": "CC[C@H](C)[C@@H]1NC(=O)[C@@H](NC(=O)[C@H](Cc2ccccc2)NC(=O)[C@H](CCC(=O)O)NC(=O)CNC(C)=O)CSCC[C@@H](C(=O)N(C)CC(=O)N[C@@H](CCC(=O)O)C(=O)N[C@@H](C)C(=O)N[C@@H](CCC(=O)O)C(=O)NCCOCCOCC(=O)NCCOCCOCC(=O)N[C@@H](CCCCNC(=O)CC[C@H](NC(=O)CNC(=O)CC[C@H](NC(=O)CCCCCCCCCCCCCCCCC(=O)O)C(=O)O)C(=O)O)C(N)=O)NC(=O)[C@H](CCCNC(=N)N)NC(=O)[C@H](Cc2c[nH]cn2)NC(=O)[C@H](CCC(=O)O)NC(=O)CN(C)C(=O)[C@H](Cc2c[nH]c3ccccc23)NC(=O)[C@H](CC(=O)O)NC(=O)[C@H](CCC(N)=O)NC(=O)[C@H](Cc2cn(C)c3ccccc23)NC1=O", "note": "[Compound 149, Ac-GEFA(1)I[1-Me-Trp]QDW[Sar]EHRhC(1)[Sar]EAE[Peg3][Peg3]-K([17-carboxy-heptadecanoyl][γGlu]G[γGlu])-NH2] (Ac-GEFCI[Trp(1-Me)]QDW[Sar]EHR[Abu(4-yl)][Sar]EAE[AEEA][AEEA]K([γGlu-Gly-γGlu-C18 diacid])-NH2; thioether 4-14)", "values": [{"measurement": "IC50", "result": "< 100", "unit": "nM"}]}
{"smiles": "CC[C@H](C)[C@@H]1NC(=O)[C@@H](NC(=O)[C@H](Cc2ccccc2)NC(=O)[C@H](CCC(=O)O)NC(=O)[C@H](CO)NC(C)=O)CSCC[C@@H](C(=O)N(C)CC(=O)N[C@@H](CCC(=O)O)C(=O)NCC(=O)N[C@@H](C)C(=O)N[C@@H](CCCCNC(=O)COCCOCCNC(=O)CC[C@H](NC(=O)COCCOCCNC(=O)CNC(=O)CC[C@H](NC(=O)CCCCCCCCCCCCCCCCC(=O)O)C(=O)O)C(=O)O)C(N)=O)NC(=O)[C@H](CCCNC(=N)N)NC(=O)[C@H](Cc2c[nH]cn2)NC(=O)[C@H](CCC(=O)O)NC(=O)CNC(=O)[C@H](Cc2c[nH]c3ccccc23)NC(=O)[C@H](CC(=O)O)NC(=O)[C@H](CCC(N)=O)NC(=O)[C@H](Cc2cn(C)c3ccccc23)NC1=O", "note": "[Compound 154, Ac-SEFA(1)I[1-Me-Trp]QDWGEHRhC(1)[Sar]EGA-K([17-carboxy-heptadecanoyl][γGlu]G[Peg3][γGlu][Peg3])-NH2] (Ac-SEFCI[Trp(1-Me)]QDWGEHR[Abu(4-yl)][Sar]EGAK([AEEA-γGlu-AEEA-Gly-γGlu-C18 diacid])-NH2; thioether 4-14)", "values": [{"measurement": "IC50", "result": "< 100", "unit": "nM"}]}
{"smiles": "CC[C@H](C)[C@@H]1NC(=O)[C@@H](NC(=O)[C@H](Cc2ccccc2)NC(=O)[C@H](CCC(=O)O)NC(=O)CNC(C)=O)CSCC[C@@H](C(=O)N(C)CC(=O)N[C@@H](CCC(=O)O)C(=O)NCC(=O)N[C@@H](CCC(=O)O)C(=O)NCCOCCOCC(=O)N[C@@H](CCC(=O)O)C(=O)N[C@@H](CO)C(=O)N[C@@H](CCCCNC(=O)CC[C@H](NC(=O)CNC(=O)CC[C@H](NC(=O)CCCCCCCCCCCCCCCCC(=O)O)C(=O)O)C(=O)O)C(N)=O)NC(=O)[C@H](CCCNC(=N)N)NC(=O)[C@H](Cc2c[nH]cn2)NC(=O)[C@H](CCC(=O)O)NC(=O)CNC(=O)[C@H](Cc2c[nH]c3ccccc23)NC(=O)[C@H](CCC(=O)O)NC(=O)[C@H](CCC(N)=O)NC(=O)[C@H](Cc2cn(C)c3ccccc23)NC1=O", "note": "[Compound 155, Ac-GEFA(1)I[1-Me-Trp]QEWGEHRhC(1)[Sar]EGE[Peg3]ES-K([17-carboxy-heptadecanoyl][γGlu]G[γGlu])-NH2] (Ac-GEFCI[Trp(1-Me)]QEWGEHR[Abu(4-yl)][Sar]EGE[AEEA]ESK([γGlu-Gly-γGlu-C18 diacid])-NH2; thioether 4-14)", "values": [{"measurement": "IC50", "result": "< 100", "unit": "nM"}]}
{"smiles": "CC[C@H](C)[C@@H]1NC(=O)[C@@H](NC(=O)[C@H](Cc2ccccc2)NC(=O)[C@H](CCC(=O)O)NC(=O)[C@H](CO)NC(C)=O)CSCC[C@@H](C(=O)N[C@H](C(=O)N[C@@H](CCC(=O)O)C(=O)NCC(=O)N[C@@H](CCC(=O)O)C(=O)NCC(=O)NCC(=O)NCC(=O)N[C@@H](CCCCNC(=O)CC[C@H](NC(=O)CNC(=O)CC[C@H](NC(=O)CCCCCCCCCCCCCCCCC(=O)O)C(=O)O)C(=O)O)C(N)=O)[C@@H](C)O)NC(=O)[C@H](CCCNC(=N)N)NC(=O)[C@H](Cc2c[nH]cn2)NC(=O)[C@H](CCC(=O)O)NC(=O)CNC(=O)[C@H](Cc2c[nH]c3ccccc23)NC(=O)[C@H](CC(=O)O)NC(=O)[C@H](CCC(N)=O)NC(=O)[C@H](Cc2cn(C)c3ccccc23)NC1=O", "note": "[Compound 157, Ac-SEFA(1)I[1-Me-Trp]QDWGEHRhC(1)TEGEGGG-K([17-carboxy-heptadecanoyl][γGlu]G[γGlu])-NH2] (Ac-SEFCI[Trp(1-Me)]QDWGEHR[Abu(4-yl)]TEGEGGGK([γGlu-Gly-γGlu-C18 diacid])-NH2; thioether 4-14)", "values": [{"measurement": "IC50", "result": "< 100", "unit": "nM"}]}
{"smiles": "CC[C@H](C)[C@@H]1NC(=O)[C@@H](NC(=O)[C@H](Cc2ccccc2)NC(=O)[C@H](CCC(=O)O)NC(C)=O)CSCC[C@@H](C(=O)N(C)CC(=O)N[C@@H](CCC(=O)O)C(=O)N[C@@H](C)C(=O)NCCOCCOCC(=O)NCCOCCOCC(=O)N[C@@H](CCCCNC(=O)CC[C@H](NC(=O)CNC(=O)CC[C@H](NC(=O)CCCCCCCCCCCCCCCCC(=O)O)C(=O)O)C(=O)O)C(N)=O)NC(=O)[C@H](CCCNC(=N)N)NC(=O)[C@H](Cc2c[nH]cn2)NC(=O)[C@H](CCC(=O)O)NC(=O)CNC(=O)[C@H](Cc2c[nH]c3ccccc23)NC(=O)[C@H](CCC(=O)O)NC(=O)[C@H](CCC(N)=O)NC(=O)[C@H](Cc2cn(C)c3ccccc23)NC1=O", "note": "[Compound 158, Ac-EFA(1)I[1-Me-Trp]QEWGEHRhC(1)[Sar]EA[Peg3][Peg3]-K([17-carboxy-heptadecanoyl][γGlu]G[γGlu])-NH2] (Ac-EFCI[Trp(1-Me)]QEWGEHR[Abu(4-yl)][Sar]EA[AEEA][AEEA]K([γGlu-Gly-γGlu-C18 diacid])-NH2; thioether 3-13)", "values": [{"measurement": "IC50", "result": "< 250", "unit": "nM"}]}
{"smiles": "CC[C@H](C)[C@@H]1NC(=O)[C@@H](NC(=O)[C@H](Cc2ccc(O)cc2)NC(=O)[C@H](C)NC(=O)[C@H](CO)NC(=O)CNC(=O)[C@H](CCC(=O)O)NC(C)=O)CSCC[C@@H](C(=O)N(C)CC(=O)N[C@@H](CCC(=O)O)C(=O)N[C@@H](CCCCN)C(=O)N[C@@H](CCC(=O)N[C@@H](CCCCNC(=O)COCCOCCNC(=O)COCCOCCNC(=O)CC[C@H](NC(=O)CCCCCCCCCCCCCCCCC(=O)O)C(=O)O)C(N)=O)C(=O)O)NC(=O)[C@H](CCCNC(=N)N)NC(=O)[C@H](Cc2c[nH]cn2)NC(=O)[C@H](CCC(=O)O)NC(=O)CNC(=O)[C@H](Cc2c[nH]c3ccccc23)NC(=O)[C@H](CC(=O)O)NC(=O)[C@H](CCC(N)=O)NC(=O)[C@H](Cc2cn(C)c3ccccc23)NC1=O", "note": "[Compound 159, Ac-EGSAYA(1)I[1-Me-Trp]QDWGEHRhC(1)[Sar]EK[γGlu]-K([17-carboxy-heptadecanoyl][γGlu][Peg3][Peg3])-NH2] (Ac-EGSAYCI[Trp(1-Me)]QDWGEHR[Abu(4-yl)][Sar]EK[γGlu]K([AEEA-AEEA-γGlu-C18 diacid])-NH2; thioether 6-16)", "values": [{"measurement": "IC50", "result": "< 100", "unit": "nM"}]}
{"smiles": "CC[C@H](C)[C@@H]1NC(=O)[C@@H](NC(=O)[C@H](Cc2ccccc2)NC(=O)[C@H](CCC(=O)O)NC(=O)[C@H](CO)NC(C)=O)CSCC[C@@H](C(=O)N(C)CC(=O)N[C@@H](CCC(=O)O)C(=O)NCC(=O)N[C@@H](CCC(=O)O)C(=O)NCCOCCOCC(=O)NCCOCCOCC(=O)N[C@@H](CCCCNC(=O)CC[C@H](NC(=O)CNC(=O)CC[C@H](NC(=O)CCCCCCCCCCCCCCC(=O)O)C(=O)O)C(=O)O)C(N)=O)NC(=O)[C@H](CCCNC(=N)N)NC(=O)[C@H](Cc2c[nH]cn2)NC(=O)[C@H](CCC(=O)O)NC(=O)CNC(=O)[C@H](Cc2c[nH]c3ccccc23)NC(=O)[C@H](CC(=O)O)NC(=O)[C@H](CCC(N)=O)NC(=O)[C@H](Cc2cn(C)c3ccccc23)NC1=O", "note": "[Compound 160, Ac-SEFA(1)I[1-Me-Trp]QDWGEHRhC(1)[Sar]EGE[Peg3][Peg3]-K([15-carboxy-pentadecanoyl][γGlu]G[γGlu])-NH2] (Ac-SEFCI[Trp(1-Me)]QDWGEHR[Abu(4-yl)][Sar]EGE[AEEA][AEEA]K([γGlu-Gly-γGlu-C16 diacid])-NH2; thioether 4-14)", "values": [{"measurement": "IC50", "result": "< 100", "unit": "nM"}]}
{"smiles": "CC[C@H](C)[C@@H]1NC(=O)[C@@H](NC(=O)[C@H](Cc2ccccc2)NC(=O)[C@H](CCC(=O)O)NC(=O)[C@H](CO)NC(C)=O)CSCC[C@@H](C(=O)N(C)CC(=O)N[C@@H](CCC(=O)O)C(=O)NCCOCCOCC(=O)NCCOCCOCC(=O)N[C@@H](CCCCNC(=O)CC[C@H](NC(=O)CNC(=O)CC[C@H](NC(=O)CCCCCCCCCCCCCCCCC(=O)O)C(=O)O)C(=O)O)C(=O)O)NC(=O)[C@H](CCCNC(=N)N)NC(=O)[C@H](Cc2c[nH]cn2)NC(=O)[C@H](CCC(=O)O)NC(=O)CN(C)C(=O)[C@H](Cc2c[nH]c3ccccc23)NC(=O)[C@H](CC(=O)O)NC(=O)[C@H](CCC(N)=O)NC(=O)[C@H](Cc2cn(C)c3ccccc23)NC1=O", "note": "[Compound 162, Ac-SEFA(1)I[1-Me-Trp]QDW[Sar]EHRhC(1)[Sar]E[Peg3][Peg3]-K([17-carboxy-heptadecanoyl][γGlu]G[γGlu])-OH] (Ac-SEFCI[Trp(1-Me)]QDW[Sar]EHR[Abu(4-yl)][Sar]E[AEEA][AEEA]K([γGlu-Gly-γGlu-C18 diacid])-OH; thioether 4-14)", "values": [{"measurement": "IC50", "result": "< 100", "unit": "nM"}]}
{"smiles": "CC[C@H](C)[C@@H]1NC(=O)[C@@H](NC(=O)[C@H](Cc2ccccc2)NC(=O)[C@H](CCC(=O)O)NC(=O)[C@H](CO)NC(C)=O)CSCC[C@@H](C(=O)N[C@H](C(=O)N[C@@H](CCC(=O)O)C(=O)NCC(=O)N[C@@H](CCC(=O)O)C(=O)NCCOCCOCC(=O)N[C@@H](CCC(=O)O)C(=O)N[C@@H](CO)C(=O)N[C@@H](CCCCNC(=O)CC[C@H](NC(=O)CCCCCCCCCCCCCCCCC(=O)O)C(=O)O)C(=O)O)[C@@H](C)O)NC(=O)[C@H](CCCNC(=N)N)NC(=O)[C@H](Cc2c[nH]cn2)NC(=O)[C@H](CCC(=O)O)NC(=O)CNC(=O)[C@H](Cc2c[nH]c3ccccc23)NC(=O)[C@H](CC(=O)O)NC(=O)[C@H](CCC(N)=O)NC(=O)[C@H](Cc2cn(C)c3ccccc23)NC1=O", "note": "[Compound 163, Ac-SEFA(1)I[1-Me-Trp]QDWGEHRhC(1)TEGE[Peg3]ES-K([17-carboxy-heptadecanoyl][γGlu])-OH] (Ac-SEFCI[Trp(1-Me)]QDWGEHR[Abu(4-yl)]TEGE[AEEA]ESK([γGlu-C18 diacid])-OH; thioether 4-14)", "values": [{"measurement": "IC50", "result": "< 100", "unit": "nM"}]}
